Laboratory results published in patent US20150307543A1, “POLYMORPH” (ONCOLOGY RESEARCH INTERNATIONAL LIMITED, priority 2012, published 2015).

Columns and labels:
Type in all cases: physicochemical
[1] = Bulk density and tap density; conditions: for Weight of 5.0 cm^3 of Solid: untapped; for Tapped density: after tapping 50 times; for Bulk density: calculated from weight of 5.0 cm^3 of solid; for Volume after tapped 50 times: starting volume 5.0 cm^3, tapped 50 times
Experimental: A comparative study of the bulk density and the tapped density of the 3 solid forms of compound one were carried out. The 3 materials tested were (1) compound I hydrate, (2) the polymorphic form of compound I of the invention and (3) the polymorphic form of compound I isolated from methanol. The tests indicated the weight of material in 5.0 cm^3 of solid (g) to calculate the bulk density. This was then tapped 50 times and the tapped density calculated.

[2] = Dynamic vapour sorption (DVS) at 25° C.; conditions: 0% to 95% RH; for total moisture uptake (percent change in mass based on dry mass): first cycle
Experimental: A comparative study of the dynamic vapour sorption (DVS) of the 3 solid forms of compound one were carried out. The 3 materials tested were (1) compound I hydrate, (2) the polymorphic form of compound I of the invention and (3) the polymorphic form of compound I isolated from methanol. The samples were analysed on a DVS automated moisture sorption instrument at 25° C. with sample sizes of 25-52 mg for the analysis. The samples were initially dried for 300 minutes under a continuous flow of air to establish the dry mass. The samples were then exposed to the following typical partial pressure profile: 0% to 90% RH in 10% steps and then followed by a 5% step to 95%. The partial pressure was then decreased in a similar manner.
Typical net percent change in mass (based on dry mass) versus time plots for the first cycle at 25° C. for the three samples are shown in FIGS. 7, 9 and 11. […] The line plotted on the left y-axis, indicates the percentage change in mass referenced to the dry mass (after initial drying stage), m0, as a function of time. The other line, plotted on the right y-axis, traces the requested % partial pressure of water vapour in the DVS as a function of time.
The isotherm plots display the percent change in mass (referenced from the dry mass, m0) versus the requested relative humidity.
For all the RH steps, the instrument was run in a dm/dt mode (mass variation over time variation). A fixed dm/dt value of 0.002% min-1 was selected. This criterion permits the DVS software to automatically determine when equilibrium has been reached and complete a relative humidity step. When the rate of change of mass falls below this threshold over a determined period of time, the humidity will proceed to the next programmed level. A maximum stage time of 360 minutes and a minimum stage time of 10 minutes were selected for this experiment.

[3] = Dissolution analysis in ethanol (% transmission until complete dissolution); conditions: set amount in ethanol with stirring, until % transmission reached 100%, FIG. 6
Experimental: In order to test the solubility of the polymorphs produced in examples 1 and 2 a set amount of the material was added to ethanol with stirring and the % transmission of the mixture thus monitored until the % transmission reached 100% (which indicated complete dissolution). The 3 materials tested were (1) compound I hydrate, (2) the polymorphic form of compound I of the invention and (3) the polymorphic form of compound I isolated from methanol. The results of this experiment were detailed in FIG. 6. […] In contrast the dissolution profile of the polymorphic form of the invention is much slower taking almost 8 times as long to reach full dissolution.

[4] = listed as polymorphic form of the invention

CC1O[C@@H](OC2C(O)[C@H](O)C(CO)O[C@H]2O[C@H]2CC[C@@]3(C)C(=CC[C@H]4[C@@H]5C[C@@H]6O[C@]7(CC[C@@H](C)CO7)[C@@H](C)[C@@H]6[C@@]5(C)CC[C@@H]43)C2)C(O)C(O)[C@H]1O (stereo partly drawn) [Form 3, diosgenyl α-L-rhamnopyranosyl-(1->2)-β-D-glucopyranoside]
Weight of 5.0 cm^3 of Solid ([1]; listed as 3): 0.847 g | Tapped density ([1]; listed as 3): 0.26 g/mL | Bulk density ([1]; listed as 3): 0.17 g/mL | Volume after tapped 50 times ([1]; listed as 3): 3.2 cm^3 | total moisture uptake (percent change in mass based on dry mass) ([2]; listed as polymorph from methanol): about 2.5% | percentage of water uptake (in words) ([2]; listed as polymorph obtained from methanol): relatively high | dissolution rate / dissolution profile (in words) ([3]; listed as polymorphic form isolated from methanol): very rapid

CC1O[C@@H](OC2C(O)[C@H](O)C(CO)O[C@H]2O[C@H]2CC[C@@]3(C)C(=CC[C@H]4[C@@H]5C[C@@H]6O[C@]7(CC[C@@H](C)CO7)[C@@H](C)[C@@H]6[C@@]5(C)CC[C@@H]43)C2)C(O)C(O)[C@H]1O (stereo partly drawn) [Form 1, diosgenyl α-L-rhamnopyranosyl-(1->2)-β-D-glucopyranoside]
Weight of 5.0 cm^3 of Solid ([1]; listed as 1): 1.430 g | Tapped density ([1]; listed as 1): 0.37 g/mL | Bulk density ([1]; listed as 1): 0.29 g/mL | Volume after tapped 50 times ([1]; listed as 1): 3.9 cm^3 | total moisture uptake (percent change in mass based on dry mass) ([2]; listed as anhydrate): about 5.2% | percentage of water uptake (in words) ([2]; listed as hydrate): relatively high | dissolution rate / dissolution profile (in words) ([3]; listed as hydrate): fastest

CC1O[C@@H](OC2C(O)[C@H](O)C(CO)O[C@H]2O[C@H]2CC[C@@]3(C)C(=CC[C@H]4[C@@H]5C[C@@H]6O[C@]7(CC[C@@H](C)CO7)[C@@H](C)[C@@H]6[C@@]5(C)CC[C@@H]43)C2)C(O)C(O)[C@H]1O (stereo partly drawn) [Form 2, diosgenyl α-L-rhamnopyranosyl-(1->2)-β-D-glucopyranoside]
Weight of 5.0 cm^3 of Solid ([1]; listed as 2): 1.489 g | Tapped density ([1]; listed as 2): 0.41 g/mL | Bulk density ([1]; listed as 2): 0.30 g/mL | Volume after tapped 50 times ([1]; listed as 2): 3.6 cm^3 | total moisture uptake (percent change in mass based on dry mass) [2, 4]: about 0.55% | percentage of water uptake (in words) [2, 4]: low | time to reach full dissolution, relative to the other forms [3]: ~8 times as long | dissolution rate / dissolution profile (in words) [3, 4]: much slower
